Reference: patent US9115072B2, “Compounds and method for reducing uric acid” (WELLSTAT THERAPEUTICS CORPORATION, priority 2008, dated 2015)
pIC50: −log10 of the molar value.

Tests used:
human URAT1 = molecular target: T1, human URAT1 (Homo sapiens, UniProt Q96S37); test: URAT1 inhibition assay, [8-14C] urate uptake in hURAT1-HEK cells; type: cell-based; settings: 50 μM [8-14C] urate
T1 construct: The full-length hURAT1 cDNA was obtained from the vector pCMV6-XL5 and subcloned into the expression vector pCMV6-Neo
T1 sequence (Q96S37 1-553): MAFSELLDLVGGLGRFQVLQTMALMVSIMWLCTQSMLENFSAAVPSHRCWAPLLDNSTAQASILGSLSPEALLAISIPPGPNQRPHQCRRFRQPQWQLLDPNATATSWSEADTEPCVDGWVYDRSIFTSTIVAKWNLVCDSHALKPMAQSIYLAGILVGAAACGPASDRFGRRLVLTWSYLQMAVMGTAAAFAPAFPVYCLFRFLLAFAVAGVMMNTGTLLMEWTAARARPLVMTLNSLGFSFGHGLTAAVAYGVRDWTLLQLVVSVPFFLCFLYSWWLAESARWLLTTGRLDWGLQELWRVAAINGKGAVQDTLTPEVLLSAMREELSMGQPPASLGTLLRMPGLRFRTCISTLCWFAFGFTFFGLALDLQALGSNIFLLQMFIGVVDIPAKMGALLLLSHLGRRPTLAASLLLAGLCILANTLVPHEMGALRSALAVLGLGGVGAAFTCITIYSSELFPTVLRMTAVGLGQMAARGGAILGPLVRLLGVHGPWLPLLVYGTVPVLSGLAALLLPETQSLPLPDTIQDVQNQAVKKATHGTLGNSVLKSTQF
Procedure: A suitable assay involves transfection of cells (e.g. human embryonic kidney cells; “HEK”) with a vector encoding human URAT1, followed by determination of the ability of transfected cells to take up radiolabeled uric acid. The activity of compounds as URAT1 inhibitors is evaluated by their ability to block uric acid uptake by transfected cells.
Urate (50-60 mCi/mmol; American Radio Chemicals, Cat. No. ARC0513).
Plasmid vector pCMV6-XL5 containing hURAT1 cDNA (Cat. No. SC125624) and the expression vector pCMV6-Neo (Cat. No. pCMVNEO) were obtained from OriGene Technologies, Inc. The full-length hURAT1 cDNA was obtained from the vector pCMV6-XL5 and subcloned into the expression vector pCMV6-Neo to create the hURAT1 expression plasmid pCMV6-hURAT1. The sequences were verified by automatic DNA sequencing.
For transfection experiments, cells were plated on 60 mm dishes in 1 ml media per dish. […] Stable transfectants expressing hURAT1 (herein after referred as hURAT1-HEK cells) or cells having only the expression vector pCMV6-Neo (herein after referred as mock-HEK cells) were verified using reverse transcription polymerase chain reaction (RT-PCR) methods.
Before the uptake assay started, the culture medium was removed and the cells were incubated for 5 min in 0.6 ml of HBSS. After that HBSS was removed, the prepared reaction solutions were added into each well and incubated for 5 min at room temperature. Then the reaction solution was removed, cells were washed twice with 0.6 ml of cold HBSS and lysed with 0.2 ml of 0.1 M NaOH for 20 min. […] Test compounds were dissolved in DMSO and the same concentration of DMSO was added into the wells of mock-HEK cells and the hURAT1-HEK cells that didn't contain test compounds. For each test compound, the uptake assay was performed 2 times and carried out in triplicate. Urate uptake of the cells for each test condition was presented as the average percent inhibition in comparison to the DMSO control. The radioactivity values obtained for the wells that contained DMSO were taken as 100% uptake of the cells. The observed concentration-percent inhibition data were fitted to a sigmoidal concentration-effect model, where: IC50^Slope=[(100*Conc^Slope)/% Inhibition]−Conc^Slope
Additional drug concentrations were tested for determination of IC-50 values for some compounds (Table 6).

[1] = test system: healthy normal men and women; test: Seven-day once/twice daily dosing clinical study, blood/plasma uric acid levels (Examples 2 and 5); type: in vivo, human; settings: for Percent Change in Uric Acid Levels Following a Single Administration of Study Treatment, Mean Percent Change: 24 hours after the first administration; for Percent Change in Uric Acid Levels Following a Daily Administration of Study Treatment for Seven Days, Mean Percent Change: after 7 consecutive days; for Effect on blood uric acid levels (in words): 400 mg twice per day or 800 mg once per day groups
Procedure: Two groups of 8 healthy normal men and women received oral administration of either 800 mg Compound BI once per day (n=6 per group) or 400 mg Compound BI twice per day (n=6 per group) or placebo capsules (n=2 per group) in a randomized, double blind clinical study. Blood uric acid levels were measured before administration of study treatment, 24 hours after the first administration of study treatment and after 7 consecutive days of study treatment administration.
Sixteen men and women participating in a clinical study were randomly assigned to receive either placebo capsules (n=4 subjects), 400 mg Compound BI twice per day (n=6 subjects), or 800 mg Compound BI once per day (n=6 subjects) for seven consecutive days. Plasma samples taken prior to (Time 0) and at 1, 2, 4, 9, 11, 13, 18 and 24 hours after the initial administration of the test article on Day 7 of the study were stored at −70° C. and later analyzed for uric acid. (This Example 5 is a continuation of the experiment described in Example 2.)

[2] = test system: mice treated with the uricase inhibitor potassium oxonate; test: Uric acid excretion in urine of mice treated with the uricase inhibitor potassium oxonate; type: in vivo, mouse; settings: for Urine Uric Acid: urine collected between 3 and 5 hours after drug; for Effect on uric acid in urine versus the Oxonate control group (in words): urine collected between 3 and 5 hours after drug administration
From the text: The model to induce hyperuricemia involves the use of the uricase (urate oxidase) inhibitor potassium oxonate that causes a delay in the degradation of uric acid to allantoin. Humans have little or no uricase activity, so inhibition of this enzyme with potassium oxonate makes mouse uric acid processing more similar to that of humans. Male 11-week old C57/B16 mice (Harlan, Frederick, Md.) were used in the studies (8 per experimental group). Mice were receiving standard rodent chow that was removed one hour before administration of potassium oxonate. Mice were given an intraperitoneal injection (i.p.) of potassium oxonate (300 mg/kg) that was suspended in 0.5% hydroxypropylmethylcellulose (HPMC). […] Urine collection was performed at 1, 3 and 5 hours after drug treatments and uric acid was measured with a colorimetric assay (BioVision Research Products, Mountain View, Calif.).

[3] = test system: healthy, normal men and women; test: Single oral dose clinical study, blood/plasma uric acid levels (Examples 1 and 4); type: in vivo, human; settings: for Mean Percent Change (blood uric acid levels): before vs 24 hours after administration
Procedure: Five groups of 4 healthy, normal men and women received a single, oral administration of escalating doses of Compound BI (n=3 per group) or placebo capsules (n=1 per group) in a randomized, double blind clinical study. Blood uric acid levels were measured before and 24 hours after administration of study treatment. Compound BI was administered at doses of 50, 100, 200, 400 or 800 mg.
Plasma samples taken immediately prior to and at 1, 2, 4, 6, 12 and 24 hours after a single, oral administration of a test compound to 4 healthy, normal men and women in each of three groups as described above in Example 1 were analyzed to determine uric acid levels. Compound BI (n=3 per group) or placebo capsules (n=1 per group) were administered in a randomized, double blind clinical study. Plasma samples taken at the time points indicated from patients receiving Compound BI at doses of 200, 400 or 800 mg were stored at −70° C. and analyzed at a later time.

[4] = 100 mg/kg p.o. after oxonate 300 mg/kg i.p.

pIC50 (human URAT1)	inhibition at 10 µM (human URAT1; drug concentration typically 10 micromolar, read-out: % of Inhibition (uric acid uptake))	SMILES	Percent Change in Uric Acid Levels Following a Single Administration of Study Treatment, Mean Percent Change ([1]; 400 mg bid)	Percent Change in Uric Acid Levels Following a Daily Administration of Study Treatment for Seven Days, Mean Percent Change ([1]; 400 mg bid)	Plasma uric acid levels at Time 0 on Day 7 compared to Time 0 on the first day and to placebo (in words) ([1]; 400 mg twice per day or 800 mg once per day for seven days, FIG. 3)	Percent Change in Uric Acid Levels Following a Single Administration of Study Treatment, Mean Percent Change ([1]; 800 mg qd)	Percent Change in Uric Acid Levels Following a Daily Administration of Study Treatment for Seven Days, Mean Percent Change ([1]; 800 mg qd)	Effect on blood uric acid levels (in words) ([1]; daily administration for 7 days)	Effect on blood uric acid levels (in words) ([1]; single dose)	Urine Uric Acid [2, 4]	Effect on uric acid in urine versus the Oxonate control group (in words) [2]	Effect on plasma uric acid levels over 24 hours (in words) ([3]; single dose 200, 400 or 800 mg, FIG. 2)	Mean Percent Change (blood uric acid levels) ([3]; single oral dose 50 mg)	Mean Percent Change (blood uric acid levels) ([3]; single oral dose 100 mg)	Mean Percent Change (blood uric acid levels) ([3]; single oral dose 200 mg)	Mean Percent Change (blood uric acid levels) ([3]; single oral dose 400 mg)	Mean Percent Change (blood uric acid levels) ([3]; single oral dose 800 mg)	Effect on blood uric acid levels (in words) ([3]; single oral dose 50, 100, 200, 400 or 800 mg, 24 hours)	Urine Uric Acid ([2]; 20 mg/kg p.o. after oxonate 300 mg/kg i.p.)	Urine Uric Acid ([2]; 30 mg/kg p.o. after oxonate 300 mg/kg i.p.)
6.02	86.1%	Cc1cccc(C)c1COc1cccc(C(=O)CCC(=O)O)c1 [Compound BI, 4-(3-(2,6-Dimethylbenzyloxy)phenyl)-4-oxobutyric acid]	−54.0%	−56.7%	significantly reduced	−45.3%	−53.2%	significant reduction	significant reduction	293 mg/dL	significant increase in excreted uric acid	significant, dose-dependent reductions	−8.8%	−13.4%	−18.9%	−35.0%	−32.7%	significant, dose-dependent reduction		
		Oc1ncnc2[nH]ncc12 [Allopurinol]									reduced the concentration of uric acid in urine								79 mg/dL	
		CCc1oc2ccccc2c1C(=O)c1cc(Br)c(O)c(Br)c1 [Benzbromarone]								173 mg/dL	induced an increase in uric acid concentration in urine, though to lesser degree than Compound BI									185 mg/dL
